# According to ChEMBL document CHEMBL6087405, “Discovery and optimization of anthraquinone derivatives containing substituted bisbenzyloxy groups as a novel scaffold damaged endoplasmic reticulum and against hepatocellular carcinoma cells” (Bioorg Med Chem, 2024):
# The source made the active and inactive calls. The calls are words filed in the database; no cut-off is given here.
# Experiments:
# [1] = tested on: Huh-7; test: Induction of ER stress in human Huh-7 cells assessed as increase in IRE1 protein level at 2 to 4 uM incubated for 48 hrs by Western blot analysis; assay type: functional, cell-based; details: dose 2-4 µM
# [2] = tested on: Huh-7; test: Induction of apoptosis in human Huh-7 cells assessed as late apoptotic cells at 8 uM measured after 48 hrs by Annexin V-PE staining based flow cytometry analysis (reference value: 2.06%); assay type: functional
# [3] = tested on: Huh-7; test: Induction of morphological change in human Huh-7 cells assessed as decrease in number of cells at 2 to 4 uM measured after 48 hrs by HE staining based microscopic analysis; assay type: functional, cell-based; details: dose 2-4 µM
# [4] = tested on: Huh-7; test: Induction of ER stress in human Huh-7 cells assessed as increase in CHOP protein level at 4 uM incubated for 48 hrs in presence of 4pba by Western blot analysis; assay type: functional, cell-based
# [5] = tested on: A549; test: Antiproliferative activity against human A549 cells measured after 48 hrs by MTT assay; assay type: functional, cell-based; details: A549, 48 h
# [6] = tested on: Huh-7; test: Induction of morphological change in human Huh-7 cells assessed as appearance of condensed cell nucleus at 2 to 4 uM measured after 48 hrs by HE staining based microscopic analysis; assay type: functional; details: dose 2-4 µM
# [7] = tested on: Huh-7; test: Induction of mitochondrial ROS release in human Huh-7 cells at 2 uM measured after 24 hrs by fluorescent microscopic analysis; assay type: functional, cell-based
# [8] = tested on: Huh-7; test: Induction of apoptosis in human Huh-7 cells assessed as necrotic cells at 4 uM measured after 48 hrs by Annexin V-PE staining based flow cytometry analysis (reference value: 3.37%); assay type: functional
# [9] = tested on: Huh-7; test: Induction of ER damage in human Huh-7 cells assessed as decrease in protein-disulfide bond content at 2 to 4 uM incubated for 48 hrs by absorbance based analysis; assay type: functional, cell-based; details: dose 2-4 µM
# [10] = tested on: Huh-7; test: Induction of apoptosis in human Huh-7 cells assessed as viable cells at 2 uM measured after 48 hrs by Annexin V-PE staining based flow cytometry analysis (reference value: 93.69%); assay type: functional; details: read-out: Activity
# [11] = tested on: Huh-7; test: Induction of morphological change in human Huh-7 cells assessed as nuclear pyknosis at 2 to 4 uM measured after 48 hrs by HE staining based microscopic analysis; assay type: functional, cell-based; details: dose 2-4 µM
# [12] = tested on: Huh-7; test: Induction of ER stress in human Huh-7 cells assessed as increase in ATF6 protein level at 2 to 4 uM incubated for 48 hrs by Western blot analysis; assay type: functional, cell-based; details: dose 2-4 µM
# [13] = tested on: Huh-7; test: Upregulation of Bax protein level in human Huh-7 cells at 2 to 4 uM by Western blot analysis; assay type: functional, cell-based; details: dose 2-4 µM
# [14] = tested on: Huh-7; test: Induction of apoptosis in human Huh-7 cells assessed as early apoptotic cells at 8 uM measured after 48 hrs by Annexin V-PE staining based flow cytometry analysis (reference value: 0.88%); assay type: functional
# [15] = tested on: Huh-7; test: Induction of ER stress in human Huh-7 cells assessed as increase in IRE1 protein level at 4 uM incubated for 48 hrs in presence of 4pba by Western blot analysis; assay type: functional, cell-based
# [16] = tested on: Huh-7; test: Upregulation of CRT expression level in human Huh-7 cells at 2 to 4 uM measured after 48 hrs by Western blot analysis; assay type: functional, cell-based; details: dose 2-4 µM
# [17] = tested on: Huh-7; test: Induction of apoptosis in human Huh-7 cells assessed as necrotic cells at 2 uM measured after 48 hrs by Annexin V-PE staining based flow cytometry analysis (reference value: 3.37%); assay type: functional
# [18] = tested on: Huh-7; test: Induction of ER stress in human Huh-7 cells assessed as increase in GRP78 protein level at 4 uM incubated for 48 hrs in presence of 4pba by Western blot analysis; assay type: functional, cell-based
# [19] = tested on: MDA-MB-231; test: Antiproliferative activity against human MDA-MB-231 cells measured after 48 hrs by MTT assay; assay type: functional, cell-based; details: MDA-MB-231, 48 h
# [20] = tested on: Huh-7; test: Induction of apoptosis in human Huh-7 cells assessed as early apoptotic cells at 4 uM measured after 48 hrs by Annexin V-PE staining based flow cytometry analysis (reference value: 0.88%); assay type: functional
# [21] = tested on: Huh-7; test: Induction of apoptosis in human Huh-7 cells assessed as late apoptotic cells at 8 uM measured after 48 hrs in presence of Z-VAD by Annexin V-PE staining based flow cytometry analysis (reference value: 2.06%); assay type: functional
# [22] = tested on: Huh-7; test: Upregulation of cleaved caspase-3 protein level in human Huh-7 cells at 2 to 4 uM by Western blot analysis; assay type: functional, cell-based; details: dose 2-4 µM
# [23] = tested on: Huh-7; test: Upregulation of Caspase 12 expression level in human Huh-7 cells at 2 to 4 uM measured after 48 hrs by Western blot analysis; assay type: functional, cell-based; details: dose 2-4 µM
# [24] = tested on: Huh-7; test: Upregulation of BAK protein level in human Huh-7 cells at 2 to 4 uM by Western blot analysis; assay type: functional, cell-based; details: dose 2-4 µM
# [25] = tested on: Huh-7; test: Induction of apoptosis in human Huh-7 cells assessed as viable cells at 4 uM measured after 48 hrs by Annexin V-PE staining based flow cytometry analysis (reference value: 93.69%); assay type: functional; details: read-out: Activity
# [26] = tested on: Huh-7; test: Induction of apoptosis in human Huh-7 cells assessed as necrotic cells at 8 uM measured after 48 hrs in presence of Z-VAD by Annexin V-PE staining based flow cytometry analysis (reference value: 3.37%); assay type: functional
# [27] = tested on: Mitochondrial membrane; test: Disruption of mitochondrial membrane potential in human Huh-7 cells assessed as appearance of punctate shaped mitochondria at 2 uM measured after 24 hrs by laser scanning confocal microscopic analysis; assay type: cell membranes
# [28] = tested on: Huh-7; test: Induction of ER stress in human Huh-7 cells assessed as increase in CHOP protein level at 2 to 4 uM incubated for 48 hrs by Western blot analysis; assay type: functional, cell-based; details: dose 2-4 µM
# [29] = tested on: Huh-7; test: Induction of ER stress in human Huh-7 cells assessed as increase in ATF6 protein level at 4 uM incubated for 48 hrs in presence of 4pba by Western blot analysis; assay type: functional, cell-based
# [30] = Drug localization in endoplasmic reticulum of human Huh-7 cells assessed as colocalization at 100 uM measured within 1 hr by fluorescence based analysis; assay type: ADME, subcellular; details: huh-7, 1 h
# [31] = tested on: Huh-7; test: Induction of ER stress in human Huh-7 cells assessed as increase in calcium ion content by measuring fluorescence intensity at 4 uM incubated for 24 hrs in presence of […] by fluorescence microscopy based analysis; assay type: functional, cell-based
# [32] = tested on: Huh-7; test: Induction of apoptosis in human Huh-7 cells assessed as viable cells at 8 uM measured after 48 hrs by Annexin V-PE staining based flow cytometry analysis (reference value: 93.69%); assay type: functional; details: read-out: Activity
# [33] = tested on: Huh-7; test: Induction of apoptosis in human Huh-7 cells assessed as early apoptotic cells at 2 uM measured after 48 hrs by Annexin V-PE staining based flow cytometry analysis (reference value: 0.88%); assay type: functional
# [34] = tested on: Huh-7; test: Induction of morphological change in human Huh-7 cells assessed as nuclear edge aggregation at 2 to 4 uM measured after 48 hrs by HE staining based microscopic analysis; assay type: functional, cell-based; details: dose 2-4 µM
# [35] = tested on: Huh-7; test: Induction of ER stress in human Huh-7 cells assessed as increase in calcium ion content by measuring fluorescence intensity at 4 uM incubated for 24 hrs by fluorescence microscopy based analysis; assay type: functional, cell-based
# [36] = tested on: Huh-7; test: Induction of ER stress in human Huh-7 cells assessed as increase in PERK protein level at 2 to 4 uM incubated for 48 hrs by Western blot analysis; assay type: functional, cell-based; details: dose 2-4 µM
# [37] = tested on: Huh-7; test: Induction of apoptosis in human Huh-7 cells assessed as viable cells at 8 uM measured after 48 hrs in presence of Z-VAD by Annexin V-PE staining based flow cytometry analysis (reference value: 93.69%); assay type: functional; details: read-out: Activity
smiles,measurement,setting,value
COc1ccc(COc2cccc3c2C(=O)c2c(OCc4ccc(OC)cc4)cc(C(=O)NCCNCCO)cc2C3=O)cc1,Activity,[1],Active
same,Activity,[2],6.32%
same,Activity,[3],Active
same,Activity,[4],inactive
same,IC50,[5],2580 nM
same,Activity,[6],Active
same,Activity,[7],Active
same,Activity,[8],8.55%
same,Activity,[9],Active
same,viability at 2 µM,[10],24.1%
same,Activity,[11],Active
same,Activity,[12],Active
same,Activity,[13],Active
same,Activity,[14],68.79%
same,Activity,[15],inactive
same,Activity,[16],Active
same,Activity,[17],6.06%
same,Activity,[18],inactive
same,IC50,[19],600 nM
same,Activity,[20],43.64%
same,Activity,[21],4.41%
same,Activity,[22],Active
same,Activity,[23],Active
same,Activity,[24],Active
same,viability at 4 µM,[25],40.2%
same,Activity,[26],10.59%
same,Activity,[27],Active
same,Activity,[28],Active
same,Activity,[29],inactive
same,Drug uptake,[30],Active
same,Activity,[31],inactive
same,viability at 8 µM,[32],23.7%
same,Activity,[33],65.4%
same,Activity,[34],Active
same,Activity,[35],Active
same,Activity,[36],Active
same,viability at 8 µM,[37],68.5%
